Laboratory results taken from patent US10294202B2, “Pyrrolidinones as herbicides” (FMC Corporation, priority 2013, dated 2019).

What was measured:
rice = assay: Test C flooded paddy test; type: in vivo, Oryza sativa; settings: Flood
Outline: (§1)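 2-leaf stage; flood 3 cm over soil; compound into paddy water; depth held; greenhouse 13–15 d; visual % control vs untreated (0 = none, 100 = complete); "-" = not tested.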

sedge, umbrella = assay: Test C flooded paddy test; type: in vivo, Cyperus difformis; settings: Flood
Outline: as §1

barnyardgrass = assay: Test C flooded paddy test; type: in vivo, Echinochloa crus-galli; settings: Flood
Outline: as §1

galium = assay: Test A postemergence herbicide test; type: in vivo, Galium aparine
Outline: (§2)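 Young potted plants in a loam–sand mix, one- to two-leaf stage and 2–10 cm tall, receive the test chemical postemergence and stay in a greenhouse for approximately 10 days. Injury is then judged by eye against untreated plants, scored 0 (none) to 100 (complete control).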

blackgrass = assay: Test A postemergence herbicide test; type: in vivo, Alopecurus myosuroides
Outline: as §2

kochia = assay: Test A pre-/postemergence herbicide test; type: in vivo, Kochia scoparia
Outline: (§3)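 Formulated compound (non-phytotoxic solvent, surfactant) sprayed pre- onto soil of seeded loam/sand pots or post- onto seedlings at 1–2 leaves; ~10 d greenhouse; 0–100 visual control rating versus untreated.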

ryegrass, Italian = assay: Test A pre-/postemergence herbicide test; type: in vivo, Lolium multiflorum
Outline: as §3

ragweed = assay: Test A pre-/postemergence herbicide test; type: in vivo, Ambrosia elatior
Outline: as §3

[1] = 31 g ai/ha, scale of 0 to 100 where 0 is no effect and 100 is complete control, 13 to 15 days
[2] = 62 g ai/ha, scale of 0 to 100 where 0 is no effect and 100 is complete control, 13 to 15 days
[3] = 125 g ai/ha, scale of 0 to 100 where 0 is no effect and 100 is complete control, 13 to 15 days
[4] = 250 g ai/ha, scale of 0 to 100 where 0 is no effect and 100 is complete control, 13 to 15 days
[5] = 125 g ai/ha, 0 to 100 scale, 0 is no effect, 100 is complete control
[6] = 125 g ai/ha, visual rating, 0 to 100 scale, 0 no effect, 100 complete control, approximately 10 days, preemergence
[7] = Postemergence, 125 g ai/ha, 0 to 100 scale, 0 is no effect, 100 is complete control
[8] = preemergence, 500 g ai/ha, 0 to 100 scale, 0 is no effect and 100 is complete control
[9] = 125 g ai/ha, visual rating on 0 to 100 scale (0 no effect, 100 complete control), approx. 10 days
[10] = 500 g ai/ha, 0 to 100 scale (0 no effect, 100 complete control)
[11] = Postemergence, 125 g ai/ha, visual rating on 0 to 100 scale (0 no effect, 100 complete control), approx. 10 days
[12] = Postemergence, 500 g ai/ha, 0 to 100 scale (0 no effect, 100 complete control)
[13] = Preemergence, 125 g ai/ha, 0 to 100 scale where 0 is no effect and 100 is complete control
[14] = Preemergence, 500 g ai/ha, visual rating on 0 to 100 scale (0 no effect, 100 complete control)

O=C1NCC(c2ccc(C(F)(F)F)nc2)C1C(=O)Nc1cccc(F)c1F (racemic) [Compound 263]
20: Plant response rating, Barnyardgrass (barnyardgrass; [1])
0: Plant response rating, Rice (rice; [1]) | Plant response rating, Rice (rice; [2]) | Plant response rating, Rice (rice; [3]) | Plant response rating, Sedge, Umbrella (sedge, umbrella; [1]) | Plant response rating, Sedge, Umbrella (sedge, umbrella; [2]) | Plant response rating, Sedge, Umbrella (sedge, umbrella; [3]) | Plant response rating, Sedge, Umbrella (sedge, umbrella; [4])
15: Plant response rating, Rice (rice; [4])
35: Plant response rating, Barnyardgrass (barnyardgrass; [2])
45: Plant response rating, Barnyardgrass (barnyardgrass; [3])
80: Plant response rating, Barnyardgrass (barnyardgrass; [4])

O=C1NCC(c2cccc(C(F)F)c2)C1C(=O)Nc1cccc(F)c1F (racemic) [Compound 211]
0: Plant response rating, Rice (rice; [3]) | Plant response rating, Rice (rice; [4]) | Plant response rating, Sedge, Umbrella (sedge, umbrella; [3]) | Plant response rating, Sedge, Umbrella (sedge, umbrella; [4]) | Plant response rating, Sedge, Umbrella (sedge, umbrella; 500 g ai/ha, scale 0 to 100) | Plant response rating, Ryegrass, Italian (ryegrass, Italian; [6]) | Plant response rating, Ragweed (ragweed; [7]) | Plant response rating, Barnyardgrass (barnyardgrass; [3])
70: Galium plant response rating (0 to 100 scale, 0 is no effect, 100 is complete control) (galium; 500 g ai/ha) | Blackgrass plant response rating (0 to 100 scale, 0 is no effect, 100 is complete control) (blackgrass; 500 g ai/ha) | Plant response rating, Kochia (kochia; [8])
80: Plant response rating, Ragweed (ragweed; [8]) | Plant response rating, Barnyardgrass (barnyardgrass; 1000 g ai/ha, scale 0 to 100)
60: Plant response rating, Galium (galium; [5]) | Kochia plant response rating (0 to 100 scale, 0 is no effect, 100 is complete control) (kochia; Postemergence, 500 g ai/ha) | Ryegrass, Italian plant response rating (0 to 100 scale, 0 is no effect, 100 is complete control) (ryegrass, Italian; Postemergence, 500 g ai/ha)
40: Plant response rating, Kochia (kochia; [6]) | Plant response rating, Kochia (kochia; [7]) | Plant response rating, Ryegrass, Italian (ryegrass, Italian; [8])
55: Plant response rating, Barnyardgrass (barnyardgrass; 500 g ai/ha, scale 0 to 100)
50: Plant response rating, Blackgrass (blackgrass; [5]) | Plant response rating, Barnyardgrass (barnyardgrass; [4])
15: Plant response rating, Rice (rice; 500 g ai/ha, scale 0 to 100) | Plant response rating, Rice (rice; 1000 g ai/ha, scale 0 to 100)
30: Plant response rating, Sedge, Umbrella (sedge, umbrella; 1000 g ai/ha, scale 0 to 100) | Plant response rating, Ryegrass, Italian (ryegrass, Italian; [7]) | Plant response rating, Ragweed (ragweed; [6]) | Ragweed plant response rating (0 to 100 scale, 0 is no effect, 100 is complete control) (ragweed; Postemergence, 500 g ai/ha)

O=C1NCC(c2cccc(C(F)(F)F)c2)C1C(=O)Nc1ccccc1Cl (racemic) [Compound 189]
30: Plant response rating, Barnyardgrass (barnyardgrass; 250 g ai/ha, scale 0 to 100)
10: Plant response rating, Barnyardgrass (barnyardgrass; [3])
0: Plant response rating, Rice (rice; [3]) | Plant response rating, Rice (rice; 250 g ai/ha, scale 0 to 100) | Plant response rating, Rice (rice; 500 g ai/ha, scale 0 to 100) | Plant response rating, Rice (rice; 1000 g ai/ha, scale 0 to 100) | Plant response rating, Sedge, Umbrella (sedge, umbrella; [3]) | Plant response rating, Sedge, Umbrella (sedge, umbrella; 250 g ai/ha, scale 0 to 100) | Plant response rating, Sedge, Umbrella (sedge, umbrella; 500 g ai/ha, scale 0 to 100) | Plant response rating, Sedge, Umbrella (sedge, umbrella; 1000 g ai/ha, scale 0 to 100)
50: Plant response rating, Barnyardgrass (barnyardgrass; 500 g ai/ha, scale 0 to 100)
75: Plant response rating, Barnyardgrass (barnyardgrass; 1000 g ai/ha, scale 0 to 100)

Cc1cccc(NC(=O)C2C(=O)NCC2c2cccc(C(F)(F)F)c2)c1 (stereo not drawn) [Compound 317]
0: Plant response rating, Galium (galium; [9]) | Plant response rating, Galium (galium; [10]) | Plant response rating, Blackgrass (blackgrass; [9]) | Plant response rating, Rice (rice; [1]) | Plant response rating, Rice (rice; [2]) | Plant response rating, Rice (rice; [3]) | Plant response rating, Rice (rice; [4]) | Plant response rating, Sedge, Umbrella (sedge, umbrella; [1]) | Plant response rating, Sedge, Umbrella (sedge, umbrella; [2]) | Plant response rating, Sedge, Umbrella (sedge, umbrella; [3]) | Plant response rating, Sedge, Umbrella (sedge, umbrella; [4]) | Plant response rating, Kochia (kochia; [11]) | Plant response rating, Kochia (kochia; [12]) | Plant response rating, Kochia (kochia; [13]) | Kochia plant response rating (kochia; [14]) | Plant response rating, Ryegrass, Italian (ryegrass, Italian; [11]) | Plant response rating, Ryegrass, Italian (ryegrass, Italian; [12]) | Plant response rating, Ryegrass, Italian (ryegrass, Italian; [13]) | Ryegrass, Italian plant response rating (ryegrass, Italian; [14]) | Plant response rating, Ragweed (ragweed; [11]) | Plant response rating, Ragweed (ragweed; [12]) | Plant response rating, Ragweed (ragweed; [13]) | Ragweed plant response rating (ragweed; [14]) | Plant response rating, Barnyardgrass (barnyardgrass; [1]) | Plant response rating, Barnyardgrass (barnyardgrass; [2])
30: Plant response rating, Barnyardgrass (barnyardgrass; [3]) | Plant response rating, Barnyardgrass (barnyardgrass; [4])
20: Plant response rating, Blackgrass (blackgrass; [10])

O=C1NCC(c2ccc(C(F)(F)F)c(F)c2)C1C(=O)Nc1cccc(F)c1F (racemic) [Compound 247]
0: Plant response rating, Rice (rice; [4]) | Plant response rating, Rice (rice; 500 g ai/ha, scale 0 to 100) | Plant response rating, Rice (rice; 1000 g ai/ha, scale 0 to 100) | Plant response rating, Sedge, Umbrella (sedge, umbrella; [4]) | Plant response rating, Sedge, Umbrella (sedge, umbrella; 500 g ai/ha, scale 0 to 100) | Plant response rating, Sedge, Umbrella (sedge, umbrella; 1000 g ai/ha, scale 0 to 100) | Plant response rating, Sedge, Umbrella (sedge, umbrella; 2000 g ai/ha, scale 0 to 100)
35: Plant response rating, Barnyardgrass (barnyardgrass; 500 g ai/ha, scale 0 to 100)
15: Plant response rating, Rice (rice; 2000 g ai/ha, scale 0 to 100)
80: Plant response rating, Barnyardgrass (barnyardgrass; 2000 g ai/ha, scale 0 to 100)
70: Plant response rating, Barnyardgrass (barnyardgrass; 1000 g ai/ha, scale 0 to 100)
25: Plant response rating, Barnyardgrass (barnyardgrass; [4])

O=C1NCC(c2cccc(OC(F)F)c2)C1C(=O)Nc1cccc(F)c1F (stereo not drawn) [Compound 324]
80: Plant response rating, Kochia (kochia; [12]) | Kochia plant response rating (kochia; [14])
50: Plant response rating, Kochia (kochia; [11]) | Plant response rating, Ryegrass, Italian (ryegrass, Italian; [12]) | Plant response rating, Ragweed (ragweed; [12])
60: Plant response rating, Galium (galium; [10]) | Plant response rating, Blackgrass (blackgrass; [9]) | Ragweed plant response rating (ragweed; [14]) | Plant response rating, Barnyardgrass (barnyardgrass; [3])
40: Plant response rating, Galium (galium; [9]) | Ryegrass, Italian plant response rating (ryegrass, Italian; [14])
30: Plant response rating, Ryegrass, Italian (ryegrass, Italian; [11]) | Plant response rating, Ryegrass, Italian (ryegrass, Italian; [13]) | Plant response rating, Ragweed (ragweed; [13])
70: Plant response rating, Blackgrass (blackgrass; [10]) | Plant response rating, Kochia (kochia; [13]) | Plant response rating, Barnyardgrass (barnyardgrass; [4])
0: Plant response rating, Rice (rice; [1]) | Plant response rating, Rice (rice; [2]) | Plant response rating, Rice (rice; [3]) | Plant response rating, Rice (rice; [4]) | Plant response rating, Sedge, Umbrella (sedge, umbrella; [1]) | Plant response rating, Sedge, Umbrella (sedge, umbrella; [2]) | Plant response rating, Sedge, Umbrella (sedge, umbrella; [3]) | Plant response rating, Sedge, Umbrella (sedge, umbrella; [4]) | Plant response rating, Barnyardgrass (barnyardgrass; [1]) | Plant response rating, Barnyardgrass (barnyardgrass; [2])
20: Plant response rating, Ragweed (ragweed; [11])
